Legend:
[1] = biological target: T1, p38 MAPKα isoform (MAPK14: Invitrogen) (Homo sapiens, UniProt Q16539); assay: p38 MAPKα enzyme inhibition assay (FRET, Z-LYTE, via MAPKAP-K2 activation); assay type: biochemical; details: 2 hr pre-incubation, ATP 10.0 μM; read-out: Enzyme Inhibition IC50 p38α
T1 construct: purchased Invitrogen

[2] = biological target: T2, Recombinant, phosphorylated p38 MAPKγ (MAPK12:Invitrogen) (Homo sapiens, UniProt P53778); assay: p38 MAPKγ enzyme inhibition assay (FRET, Z-LYTE); assay type: biochemical; details: 2 hr pre-incubation, ATP 100 μM; read-out: Enzyme Inhibition IC50 p38γ
T2 construct: purchased Invitrogen
T2 sequence (P53778 1-367): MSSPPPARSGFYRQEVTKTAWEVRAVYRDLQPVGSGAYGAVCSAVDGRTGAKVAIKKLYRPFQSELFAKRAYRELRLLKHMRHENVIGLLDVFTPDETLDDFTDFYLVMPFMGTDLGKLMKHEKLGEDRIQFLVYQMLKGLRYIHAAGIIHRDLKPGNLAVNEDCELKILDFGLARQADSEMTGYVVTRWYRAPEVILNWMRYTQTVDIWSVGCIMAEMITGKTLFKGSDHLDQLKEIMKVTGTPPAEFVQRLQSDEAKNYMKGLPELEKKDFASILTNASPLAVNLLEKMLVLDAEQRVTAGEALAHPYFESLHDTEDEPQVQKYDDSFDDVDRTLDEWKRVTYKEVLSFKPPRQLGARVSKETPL

[3] = tested on: LPS-induced TNFα release in THP-1 cells; assay: LPS-induced TNFα release in THP-1 cells; assay type: cell-based; details: Homo sapiens, 3 μg/mL LPS, 4 hr
How it was run: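 Human monocytic cells were stimulated with 3 μg/mL E. coli LPS for 4 hr. Supernatant TNFα was measured by sandwich ELISA. Inhibition was taken relative to vehicle control, and IC50 derived from the concentration-response curve.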

[4] = tested on: LPS-induced TNFα release in d-U937 cells; assay: LPS-induced TNFα release in d-U937 cells; assay type: cell-based; details: Homo sapiens, dU937, 4 h; read-out: LPS/TNFα REC50 d-U937
How it was run: (§1)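 U937 cells differentiated with PMA (100 ng/mL, 48–72 hr), pre-incubated with compound 2 hr, then stimulated with 0.1 μg/mL E. coli O111:B4 LPS for 4 hr. Supernatant TNFα and IL-8 measured by sandwich ELISA; REC50 (TNFα) and IC50 (IL-8 inhibition vs vehicle) taken from concentration-response curves.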

[5] = tested on: LPS-induced IL-8 release in d-U937 cells; assay: LPS-induced IL-8 release in d-U937 cells; assay type: cell-based; details: Homo sapiens, dU937, 0.1 μg/mL LPS, 4 hr
How it was run: as §1

[6] = tested on: Poly I:C-induced ICAM-1 expression in BEAS2B cells; assay: Poly I:C-induced ICAM-1 induction in BEAS2B cells; assay type: cell-based; details: Homo sapiens, BEAS-2B, poly I:C 1 μg/mL, 18 hr, read-out: PolyI:C/ICAM1 IC50 BEAS2B
How it was run: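 Human bronchial epithelial BEAS2B cells were pre-incubated with compound for 2 h, then transfected with poly I:C at 1 μg/mL. Surface ICAM-1 was measured 18 h later by cell-based ELISA (OD450–655), normalised to crystal-violet cell number (OD595). IC50 was taken from the concentration–response curve against vehicle.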

[7] = tested on: Differentiated U937 cells; assay: MTT assay: cell viability on exposure to test compounds; assay type: cell-based, human; details: percentage loss of cell viability vs vehicle, 1 μg/mL; for MTT Assay (Viability) 4 h d-U937: 5% FCS; for MTT Assay (Viability) 24 h d-U937: 10% FCS
How it was run: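 Differentiated U937 cells were pre-incubated with compound for either 4 h in 5% FCS or 24 h in 10% FCS, then given MTT for 1 h. Formazan was dissolved in DMSO and read at 550 nm. Viability loss is expressed as % versus 0.5% DMSO vehicle, so an apparent gain appears as a negative value.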

T1 sequence (Q16539 whole entry, canonical isoform): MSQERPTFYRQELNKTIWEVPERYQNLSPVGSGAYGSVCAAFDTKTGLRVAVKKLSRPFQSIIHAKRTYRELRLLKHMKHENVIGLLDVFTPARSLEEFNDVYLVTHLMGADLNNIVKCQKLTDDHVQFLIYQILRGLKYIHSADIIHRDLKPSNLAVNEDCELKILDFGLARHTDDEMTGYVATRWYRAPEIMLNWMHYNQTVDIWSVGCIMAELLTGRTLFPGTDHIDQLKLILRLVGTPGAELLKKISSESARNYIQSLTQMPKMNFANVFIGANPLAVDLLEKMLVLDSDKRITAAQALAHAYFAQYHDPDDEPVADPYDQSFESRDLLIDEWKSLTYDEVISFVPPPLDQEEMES

Row | SMILES | IC50 [1] [nM] | IC50 [2] [nM] | IC50 [3] [nM] | EC50 [4] [nM] | IC50 [5] [nM] | IC50 [6] [nM] | MTT Assay (Viability) 4 h d-U937 [7] [%] | MTT Assay (Viability) 24 h d-U937 [7] [%]
1 | CNC(=O)Nc1cc(Oc2ccc(NC(=O)Nc3cc(C(C)(C)C)nn3-c3ccc(S(C)(=O)=O)cc3)c3ccccc23)ccn1 [Example 46, 1-(3-tert-butyl-1-(4-(methylsulfonyl)phenyl)-1H-pyrazol-5-yl)-3-(4-((2-(3-methylureido)pyridin-4-yl)oxy)naphthalen-1-yl)urea] | 36.2 | 104 | 2.3 | 0.4 | 2 | 41.2 | −12.6 | −47.9
2 | CC(C)(C)c1cc(NC(=O)Nc2ccc(Oc3ccnc(NC(=O)NC4CC4)c3)c3ccccc23)n(-c2ccc(S(C)(=O)=O)cc2)n1 [Example 47, 1-(3-tert-butyl-1-(4-(methylsulfonyl)phenyl)-1H-pyrazol-5-yl)-3-(4-(2-(3-cyclopropylureido)pyridin-4-yloxy)naphthalen-1-yl)urea] | 8.4 | 262 | 17.3 | 17 | 24.3 | 2.4 | 3.5 | −21.7
3 | CN1CCN(C(=O)Nc2cc(Oc3ccc(NC(=O)Nc4cc(C(C)(C)C)nn4-c4ccc(S(C)(=O)=O)cc4)c4ccccc34)ccn2)CC1 [Example 48, N-(4-(4-(3-(3-tert-butyl-1-(4-(methylsulfonyl)phenyl)-1H-pyrazol-5-yl)ureido)naphthalen-1-yloxy)pyridin-2-yl)-4-methylpiperazine-1-carboxamide] | 0.6 | 123 | 3.4 | 2.4 | 5 | 32.7 | −16.1 | −11.3
4 | CC(C)(C)c1cc(NC(=O)Nc2ccc(Oc3ccnc(NC(=O)N4CCOCC4)c3)c3ccccc23)n(-c2ccc(S(C)(=O)=O)cc2)n1 [Example 49, N-(4-(4-(3-(3-tert-butyl-1-(4-(methylsulfonyl)phenyl)-1H-pyrazol-5-yl)ureido)naphthalen-1-yloxy)pyridin-2-yl)morpholine-4-carboxamide] | 5.2 | 185 | 0.8 | 0.5 | 0.8 | 10.7 | −15.9 | 11.8
5 | COCC(=O)Nc1cc(Oc2ccc(NC(=O)Nc3cc(C(C)(C)C)nn3-c3ccc(S(C)(=O)=O)cc3)c3ccccc23)ncn1 [Example 50, N-(6-(4-(3-(3-tert-butyl-1-(4-(methylsulfonyl)phenyl)-1H-pyrazol-5-yl)ureido)naphthalen-1-yloxy)pyrimidin-4-yl)-2-methoxyacetamide] | 9.5 | 39.3 | 13.3 | 4.5 | 272 | 100 | −8.0 | −10.4
6 | COCC(=O)Nc1cc(Oc2ccc(NC(=O)Nc3cc(C(C)(C)C)nn3-c3ccc(O)c(Cl)c3)c3ccccc23)ccn1 [Example 52, N-(4-(4-(3-(3-tert-butyl-1-(3-chloro-4-hydroxyphenyl)-1H-pyrazol-5-yl)ureido)naphthalen-1-yloxy)pyridin-2-yl)-2-methoxyacetamide] | 1.9 | 332 | 8.2 | 16.3 | > 1630 | 5.7 | 8.5 | −48.8
7 | COCC(=O)Nc1cc(Oc2ccc(NC(=O)Nc3cc(C(C)(C)C)nn3-c3cc(OC)cc(OC)c3)c3ccccc23)ccn1 [Example 53, N-(4-(4-(3-(3-tert-butyl-1-(3,5-dimethoxyphenyl)-1H-pyrazol-5-yl)ureido)naphthalen-1-yloxy)pyridin-2-yl)-2-methoxyacetamide] | 29.9 | 83.4 | 1.2 | 0.4 | 20 | 27.4 | 3.1 | −0.9
8 | COCC(=O)Nc1cc(Oc2ccc(NC(=O)Nc3cc(C(C)(C)C)nn3-c3ccc(OC)c(Cl)c3)c3ccccc23)ccn1 [Example 54, N-(4-(4-(3-(3-tert-butyl-1-(3-chloro-4-methoxyphenyl)-1H-pyrazol-5-yl)ureido)naphthalen-1-yloxy)pyridin-2-yl)-2-methoxyacetamide] | 9.1 | 199 | 1.3 | 0.2 | 2.7 | 0.7 | 0.1 | −7.5
9 | COCC(=O)Nc1cc(Oc2ccc(NC(=O)Nc3cc(C(C)(C)C)nn3-c3ccc(Cl)c(Cl)c3)c3ccccc23)ccn1 [Example 55, N-(4-(4-(3-(3-tert-butyl-1-(3,4-dichlorophenyl)-1H-pyrazol-5-yl)ureido)naphthalen-1-yloxy)pyridin-2-yl)-2-methoxyacetamide] | 14.9 | 102 | 4.3 | 0.8 | 5.5 | 14.7 | −16.1 | −71.1
10 | COCC(=O)Nc1cc(Oc2ccc(NC(=O)Nc3cc(C(C)(C)C)nn3-c3ccc(C)nc3)c3ccccc23)ccn1 [Example 57, N-(4-(4-(3-(3-tert-butyl-1-(6-methylpyridin-3-yl)-1H-pyrazol-5-yl)ureido)naphthalen-1-yloxy)pyridin-2-yl)-2-methoxyacetamide] | < 0.2 | 246 | 1.6 | 0.3 | 17.2 | 8.6 | −3.4 | 76.0
11 | COCC(=O)Nc1cc(COc2ccc(NC(=O)Nc3cc(C(C)(C)C)nn3-c3ccc(C)cc3)c(C)c2C)ccn1 [Example 58, N-(4-((4-(3-(3-tert-butyl-1-(p-tolyl)-1H-pyrazol-5-yl)ureido)-2,3-dimethylphenoxy)methyl)pyridin-2-yl)-2-methoxyacetamide] | 10.6 | 329 | 388 | 10.4 | 45.6 | 474 | −2.8 | 12.0
12 | COCC(=O)Nc1cc(COc2ccc(NC(=O)Nc3cc(C(C)(C)C)nn3-c3ccc(OC)cc3)c(C)c2C)ccn1 [Example 59, N-(4-((4-(3-(3-tert-butyl-1-(4-methoxyphenyl)-1H-pyrazol-5-yl)ureido)-2,3-dimethylphenoxy)methyl)pyridin-2-yl)-2-methoxy acetamide] | 12.7 | 4150 | 242 | 104 | 165 | 277 | 11.3 | 0.9
13 | CNC(=O)Nc1cc(COc2ccc(NC(=O)Nc3cc(C(C)(C)C)nn3-c3ccc(OC)cc3)c(C)c2C)ccn1 [Example 60, 1-(4-((4-(3-(3-tert-butyl-1-(4-methoxyphenyl)-1H-pyrazol-5-yl)ureido)-2,3-dimethylphenoxy)methyl)pyridin-2-yl)-3-methylurea] | 13 | > 17500 | 122 | 24.3 | 364 | > 175 | 17.2 | −0.2
14 | COCC(=O)Nc1cc(COc2ccc(NC(=O)Nc3cc(C(C)(C)C)nn3-c3ccc(OC)nc3)c(C)c2C)ccn1 [Example 61, N-(4-((4-(3-(3-tert-butyl-1-(6-methoxypyridin-3-yl)-1H-pyrazol-5-yl)ureido)-2,3-dimethylphenoxy)methyl)pyridin-2-yl)-2-methoxy acetamide] | 12.8 | 2810 | 1260 | 120 | 204 | > 1700 | 3.5 | −5.1
